From the NIST ThermoML archive (doi:10.1016/j.tca.2013.08.002)
± gives the expanded uncertainty stated by the source.

Experiments:
[1] = mn = molality of the nth substance listed, in mol/kg; details: 101 kPa, Liquid; for speed of sound: Frequency=1.999 MHz, Sing-around technique in a fixed-path interferometer; for mass density: Vibrating tube method
[2] = 101 kPa, Liquid, Frequency=1.999 MHz, Sing-around technique in a fixed-path interferometer

speed of sound ([1]; 288.15 K, m1 = 0.3)	mass density ([1]; 288.15 K, m1 = 0.3)	speed of sound ([1]; 293.15 K, m1 = 0.3)	mass density ([1]; 293.15 K, m1 = 0.3)	speed of sound ([1]; 298.15 K, m1 = 0.3)	speed of sound ([1]; 303.15 K, m1 = 0.3)	mass density ([1]; 303.15 K, m1 = 0.3)	speed of sound ([1]; 308.15 K, m1 = 0.3)	speed of sound ([1]; 313.15 K, m1 = 0.3)	mass density ([1]; 313.15 K, m1 = 0.3)	speed of sound ([1]; 318.15 K, m1 = 0.3)	mass density ([1]; 318.15 K, m1 = 0.3)	mass density ([1]; 298.15 K, m1 = 0.3)	mass density ([1]; 308.15 K, m1 = 0.3)	speed of sound ([2]; 298.15 K)	speed of sound ([2]; 308.15 K)	speed of sound ([2]; 313.15 K)	speed of sound ([1]; 298.15 K, m2 = 0)	speed of sound ([1]; 308.15 K, m2 = 0)	speed of sound ([1]; 313.15 K, m2 = 0)	Compound
1510.3 ± 10 m/s	1024.7 ± 2 kg/m3	1518.6 ± 10 m/s	1022.7 ± 2 kg/m3	1529.1 ± 10 m/s	1540 ± 10 m/s	1019.2 ± 2 kg/m3	1551.9 ± 10 m/s	1563 ± 10 m/s	1014.9 ± 2 kg/m3	1573.4 ± 10 m/s	1012.6 ± 2 kg/m3									[Cl-].[Cl-].[Mg+2] [magnesium chloride] + O
1482.9 ± 10 m/s	1019.9 ± 2 kg/m3	1500.8 ± 10 m/s	1018.1 ± 2 kg/m3	1518.4 ± 10 m/s	1537.8 ± 10 m/s	1013.5 ± 2 kg/m3	1548.6 ± 10 m/s	1558.8 ± 10 m/s	1006.1 ± 2 kg/m3	1568 ± 10 m/s	1003.4 ± 2 kg/m3	1016.9 ± 2 kg/m3	1008.5 ± 2 kg/m3							[Cl-].[K+] [potassium chloride] + O
														1496.5 ± 10 m/s	1519.4 ± 10 m/s	1528.9 ± 10 m/s				O [water]
																	1496.5 ± 10 m/s	1519.4 ± 10 m/s	1528.9 ± 10 m/s	O [water] + C[N+](C)(C)CC(=O)[O-]
